± gives the expanded uncertainty stated by the source.
Test: mn = molality of the nth substance listed, in mol/kg
Conditions: 101.3 kPa, Liquid; for speed of sound: Sing-around technique in a fixed-path interferometer

O=C[O-].[Na+] [sodium methanoate] + O
Conditions	mass density, 308.15 K [kg/m3]	mass density, 318.15 K [kg/m3]	speed of sound, 318.15 K [m/s]
m1 = 0.0263	995.129 ± 0.35	991.308 ± 0.36	1538.3 ± 0.99
m1 = 0.0331	995.412 ± 0.35	991.587 ± 0.36	1538.8 ± 0.99
m1 = 0.0437	995.851 ± 0.34	992.021 ± 0.36	1539.3 ± 0.99
m1 = 0.0497	996.099 ± 0.34	992.265 ± 0.36	1539.6 ± 0.99
m1 = 0.057	996.397 ± 0.34	992.559 ± 0.36	1540 ± 0.99
m1 = 0.0682	996.863 ± 0.34	993.016 ± 0.35	1540.6 ± 0.99
m1 = 0.0747	997.131 ± 0.34	993.282 ± 0.35	1541 ± 0.99
m1 = 0.0811	997.398 ± 0.34	993.545 ± 0.35	1541.3 ± 0.99
m1 = 0.0909	997.799 ± 0.34	993.945 ± 0.35	1541.9 ± 0.99
m1 = 0.0975	998.074 ± 0.34	994.215 ± 0.35	1542.4 ± 0.99
m1 = 0.1428	999.916 ± 0.33	996.044 ± 0.34	1544.5 ± 0.99
m1 = 0.2955	1006.11 ± 0.35	1002.18 ± 0.34	1552.5 ± 1
m1 = 0.4697	1012.98 ± 0.38	1008.95 ± 0.36	1561.2 ± 1
m1 = 0.6887	1021.49 ± 0.41	1017.38 ± 0.4	1572.6 ± 1
m1 = 0.8366	1027.11 ± 0.44	1022.93 ± 0.42	1579 ± 1
m1 = 0.9653	1031.93 ± 0.46	1027.66 ± 0.44	1584.9 ± 1
m1 = 1.139	1038.38 ± 0.48	1034.04 ± 0.47	1593.2 ± 1
m1 = 1.233	1041.81 ± 0.5	1037.43 ± 0.48	1597.3 ± 1
m1 = 1.496	1051.27 ± 0.54	1046.79 ± 0.52	1609.2 ± 1
m1 = 2.188	1075.15 ± 0.64	1070.43 ± 0.62	1638.3 ± 1.1
m1 = 2.783	1094.61 ± 0.72	1089.57 ± 0.7	1661.4 ± 1.1
m1 = 3.458	1115.48 ± 0.8	1110.11 ± 0.78	1685.7 ± 1.1
m1 = 4.201	1137.22 ± 0.89	1131.78 ± 0.87	1709.9 ± 1.1
m1 = 4.966	1158.26 ± 0.98	1152.83 ± 0.96	1733.4 ± 1.1
m1 = 6.561	1198.4 ± 1.1	1192.37 ± 1.1	1775.7 ± 1.2
m1 = 7.737	1225.05 ± 1.3	1218.87 ± 1.2	1802 ± 1.2
m1 = 8.551	1242.15 ± 1.3	1235.77 ± 1.3	1818.3 ± 1.2
m1 = 10.05	1271.22 ± 1.4	1264.6 ± 1.4	1844.6 ± 1.2

Source: the NIST ThermoML archive (doi:10.1021/je0496600)
